The values that follow come from patent publication US12433911B2, “Preparation and storage of liposomal RNA formulations suitable for therapy” (BIONTECH SE, priority 2019, dated 2025).

Structures are written as SMILES. Read-outs that look alike come from different tables or passages of the source.

A short description of data set [1]: Buffer, pH, NaCl and sucrose stability studies at +25° C. and −15° C. (PCS, pH, capillary electrophoresis). The note with it: for stability of the RNA in RNA lipoplexes: Example 2.1, accelerated conditions (25°); for preservation of the particle size and the polydispersity: Example 2.1, frozen state (−15° C.). On the procedure: RNA lipoplexes are incubated under accelerated conditions (25° C.) in the presence of an exemplarily cryoprotectant. RNA integrity was analyzed by capillary electrophoresis over 60 days. Additionally, RNA lipoplexes are incubated under at the anticipated storage conditions (−15° C.) in the presence of an exemplarily cryoprotectant for up to two years. RNA integrity was analyzed by capillary electrophoresis.
The respective RNA lipoplexes were investigated under accelerated conditions (25° C.) and in the frozen state (−15° C.).
RNA lipoplexes were formed with liposomes containing 2 mM of acetic acid. The respective RNA lipoplexes were investigated under accelerated conditions (25° C.) and in the frozen state (−15° C.).
Method: All RNA lipoplexes were automatically prepared in a single batch and the different concentrations of HEPES were adjusted by the addition of a cryoprotectant solution containing different amounts of HEPES. Particle sizes and polydispersity of RNA lipolexes were analyzed by photon correlation spectroscopy (PCS) measurements. Additionally, the RNA integrity was analyzed by capillary electrophoresis and the pH was measured.
In the following study, the concentration of HEPES which is required for stabilization of the pH of the RNA lipoplexes was investigated. RNA lipoplexes were formed with liposomes containing 5 mM of acetic acid and different concentrations of HEPES were adjusted by using different cryoprotectant solutions and the respective RNA lipoplexes were investigated under accelerated conditions (25° C.). The pH range from pH 6.2 to 7.2 was tested.
Methods: As a representative cryoprotectant, sucrose was investigated at a concentration of 10% (w/v). A detailed description of the experiments is given in section 2.
In the following study, the long-term stability of RNA lipoplexes in the frozen state was investigated with the combination of the reduced concentration of NaCl and Sucrose in the presence of either HEPES or Histidine as a buffering agent at a pH of 6.5.

A short description of data set [2]: RNA integrity of RNA lipoplexes under stress conditions (40° C.), capillary electrophoresis. The note with it: 21 days, absence of cryoprotectant, by buffering system.
Method: RNA lipoplexes are initially incubated under stress conditions (40° C.) in the absence of cryoprotectant. RNA integrity was analyzed by capillary electrophoresis over 21 days. In order to investigate the optimum pH range in the presence of an exemplary cryoprotectant, RNA lipoplexes were incubated in the presence of HEPES and sucrose at 40° C. and RNA integrity was analyzed for 21 days.
RNA integrity was analyzed as a key physicochemical parameter over 21 days.
Data set [3] can be described thus: DOPE and DOPE/DOTMA solubility in ethanol (HPLC). Conditions: for DOPE solubility in ethanol comprising 220 mM DOTMA, mM after Filtration: DOTMA/DOPE 66:33 in ethanol abs. Type of data set: physicochemical. On the procedure:
DOPE and DOPE/DOTMA solubility in ethanol was investigated by preparing 300 mM DOPE or 330 mM DOPE/DOTMA (66:33) solutions in ethanol. The lipids were dissolved by incubating the lipid solutions at 37° C. for 20 minutes. The DOPE solutions were centrifuged at 17000 G for 1 h and the DOPE concentration was measured in the supernatant by HPLC. The DOTMA/DOPE solutions were filtered through a 0.22 μm PES syringe filter and the lipid concentration was measured in the filtrate by HPLC.
Lipid concentration in the different liposome formulations were measured by HPLC (Agilent technologies. Santa Clara. USA) using a Sunfire C18 2.5 μm 4.6×75 mm column (Waters, Massachusetts USA) and a wave length of 205 nm. Mobile phase A was a mixture of 70% methanol/30% isopropanol/0.1% TFA, mobile phase B was a mixture of 55% methanol/15% isopropanol/30% water/0.1% TFA. Liposomes samples were or not diluted with water to 3 mM total lipid concentration.
It has been tested if DOPE-containing solutions of higher concentration can be prepared (in the supersaturated state) and used for ethanol injection for liposome manufacturing (next section).

The nature of data set [4]: Freezing of RNA lipoplexes with cryoprotectants and NaCl, particle size. The format is physicochemical. The note with it: for preservation of particle size: single freezing step, 0 to 60 mM NaCl, 20% (w/v) cryoprotectant.
Excerpt: Methods: Different compounds representative for monosaccharides (glucose and sorbitol), disaccharides (sucrose and trehalose), amino acids (arginine, prolin), triols (glycerin) as well as cryoprotectant systems containing mixtures of different sugars (mannitol and sucrose) were investigated in order to identify suited cryoprotectants (FIGS. 25 and 26). Therefore RNA lipoplexes were frozen in the presence of increasing concentration of these compounds. In order to identify minimum content of cryoprotectant at a certain concentration of NaCl, RNA lipoplexes were frozen in the presence of increasing amounts of sucrose or trehalose as representative cryoprotectants (Table 7). The samples were initially frozen a single time in order to determine the concentration range of cryoprotectant to be investigated in detail. In a third experiment, the efficacy of stabilization of the particle size was challenged by freezing of the RNA lipoplexes up to 10 times in the presence of the cryoprotectant trehalose (Table 8).
The procedure of data set [5]: The samples were frozen at −30° C. and then transferred to the respective temperature for long-term storage (either −15 or −30° C.). After defined storage time, samples were analyzed and preservation of the colloidal stability was analyzed by measuring the particle size using PCS. These experiments were performed at a total RNA concentration of 0.05 mg/mL.
Method: To investigate the minimum content of representative cryoprotectants as sucrose, trehalose, glucose and mixtures including dextran required for long-term storage at −20° C., RNA lipoplexes were frozen at a fixed cryoprotectant content in combination with varying NaCl concentrations. For monomeric or dimeric molecular cryoprotectants as glucose, sucrose, and trehalose a concentration of 22% (w/v) was adjusted. These formulations were frozen and stored at −15 to −40° C. and long-term stability was investigated by measuring the particle size using PCS after defined storage time.
The samples were frozen and stored at −20° C. After defined storage time, samples were analyzed and preservation of the colloidal stability was analyzed by measuring the particle size.

[6] abbreviates: Example 2.2, accelerated conditions (25° C.).
Where [7] appears, read: Example 2.2, frozen state (−15° C.).
The mark [8] stands for this setting: compound tested as cryoprotectant.
Setting [9] is: 70 mM NaCl, up to 10 times freezing.

Turning to `O=S(=O)(O)CCN1CCN(CCO)CC1` [HEPES, 2-[4-(2-hydroxyethyl)piperazin-1-yl]ethanesulfonic acid], the “HEPES concentration sufficient for stabilization of the adjusted pH” value in data set [1] (25° C.) is recorded as at least 2.5 mM. For the same compound, in data set [1], the “stability of the RNA in RNA lipoplexes” value is listed as “best stability”; the “preservation of the particle size and the polydispersity” value is “equally suited”. The “stabilization of the RNA integrity” value in data set [1] (setting [6]) is “comparable stabilization of the RNA integrity”. The “stabilization of the RNA integrity” value in data set [1] (setting [7]) is recorded as “comparable stabilization of the RNA integrity”. In addition, the RNA integrity result in data set [1] (Example 4.1, accelerated +25° C., vs current formulation 20 mM NaCl and 22% sucrose) is listed as “better preserved”.
With `O=P(O)(O)O` [sodium phosphate], the “stabilization of the RNA (RNA integrity)” value in data set [2] is “comparable results”.
Take `CCCCCCCC/C=C\CCCCCCCC(=O)OC[C@H](COP(=O)(O)OCCN)OC(=O)CCCCCCC/C=C\CCCCCCCC` [DOPE, 1,2-di-(9Z-octadecenoyl)-sn-glycero-3-phosphoethanolamine]: the “DOPE solubility in ethanol comprising 220 mM DOTMA, mM after Filtration” value in data set [3] (Corden Pharma, F0624) was 93 mM; in data set [3] (Corden Pharma, W0650) it was 106 mM; in data set [3] (Merck, MK2885-C), 94 mM; in data set [3] (NOF, 14099612) it was 103 mM. Besides, the “DOPE solubility in ethanol” value is on record as 56 mM in data set [3] (Provider Corden Pharma, Charge Nr. F0624); 59 mM in data set [3] (Provider Corden Pharma, Charge Nr. W0650); 59 mM in data set [3] (Provider Merck, Charge Nr. MK2885-C); 63 mM in data set [3] (Provider NOF, Charge Nr. 14099612).
`O=C(O)[C@@H]1CCCN1` [proline]: the “stabilization of RNA lipoplexes during freezing” value in data set [4] is “can be used as cryoprotectants”.
As for `O=S(=O)(O)CCN1CCOCC1` [MES, 2-(N-morpholino)ethanesulfonic acid], the “stabilization of the RNA integrity” value in data set [1] is “comparable stabilization of the RNA integrity”.
Regarding `OC[C@@H](O)[C@@H](O)[C@H](O)[C@@H](O)CO` [sorbitol], in data set [4] (setting [8]), the “stabilization of RNA lipoplexes during freezing” value is given as “can be used as cryoprotectants”. Further, the “stabilization efficacy compared with the other cryoprotectants” value in data set [4] (freezing) is reported as “lower”.
With `N=C(N)NCCC[C@H](N)C(=O)O` [arginine], the “stabilization of RNA lipoplexes during freezing” value in data set [4] (setting [8]) is reported as “clearly destabilizes the RNA lipoplexes”.
In the case of `OC[C@H]1O[C@@](CO)(O[C@H]2O[C@H](CO)[C@@H](O)[C@H](O)[C@H]2O)[C@@H](O)[C@@H]1O` [sucrose], the “stabilization efficacy between cryoprotectants” value in data set [5] is recorded as “No difference”. Besides, the “preservation of particle size” value in data set [4] is “acceptable preservation of particle size”.
Take `N[C@@H](Cc1c[nH]cn1)C(=O)O` [Histidine, histidine]: in data set [1], the “stability of the RNA in RNA lipoplexes” value is “lower stability”; the “preservation of the particle size and the polydispersity” value is recorded as “equally suited”. For the same compound, in data set [1] (setting [6]), the “stabilization of the RNA integrity” value was “slightly reduced stability”. Moreover, the “stabilization of the RNA integrity” value in data set [1] (setting [7]) is given as “comparable stabilization of the RNA integrity”.
Regarding `O=C([O-])[O-].[Na+].[Na+]` [carbonate, sodium carbonate], the “stabilization of the RNA (RNA integrity)” value in data set [2] is “did not result in comparable stabilization of the RNA”.
Take `OC[C@H]1O[C@H](O[C@H]2O[C@H](CO)[C@@H](O)[C@H](O)[C@H]2O)[C@H](O)[C@@H](O)[C@@H]1O` [trehalose]: the “stabilization efficacy between cryoprotectants” value in data set [5] is “No difference”. The “trehalose sufficient for stabilization of particle characteristics” value in data set [4] (50 mM NaCl, even after 10 times freezing) is given as at least 12.5%. The “trehalose required for exact preservation of the particle size” value in data set [4] (setting [9]) is reported as at least 22.5%. The “trehalose required for minimum stabilization” value is at least 12.5% in data set [4] (setting [9]) and at least 15.0% in data set [4] (90 mM NaCl, up to 10 times freezing). In data set [4] (90 mM NaCl, highest investigated concentration 27.5%), the “exact preservation of the particle size” value is “could not be achieved”. Also, the “preservation of particle size” value in data set [4] is recorded as “acceptable preservation of particle size”.
Take `OCC(O)CO` [Glycerin, glycerin]: the “stabilization of RNA lipoplexes during freezing” value in data set [4] (setting [8]) is on record as “can be used as cryoprotectants”.
